Columns and labels:
PC12-HS cells [1] = test: Evaluation B: neurite-outgrowth action in presence of NGF; assay type: cell-based, rat; settings: for Evaluation B: Neurite-outgrowth action: 50 μl of 400 ng/ml test sample solution per well + NGF final 5 ng/ml; for Evaluation B: Neurite-outgrowth action / Percentage (%) of cells with neurite outgrowth: 3 days; for Percentage (%) of cells with neurite outgrowth: 50 μl/well of 2 μg/ml test solution + NGF final 5 ng/ml
PC12-HS cells [2] = test: Evaluation A: neurocyte (cell)-growth-promoting action, ALAMAR BLUE; assay type: cell-based, rat
Description: Then, the effects of test samples were judged as follows:
The relative value of 140 to 199: Equivalent effect to that of NK-4, symbol (∘); The relative value of 200 or higher: Stronger effect than that of NK-4, symbol ([…]). • The results are in Table 6.
The relative fluorescent intensity of each well was determined by using the fluorescent intensity of each well with cells, which had been cultured by admixing with D-MEM medium containing 10% by volume of FBS without any of the compounds, and the intensity of the resulting culture was regarded as 100%. The results are expressed as cell survival percentages (%) in Table 9. […]
The test was conducted twice for each test sample in a triplicate manner and the data were averaged.
Seven compounds as in Table 17, NK-234, NK-26, NK-9815, NK-9694, NK-28 and NK-147 as well as NK-4, were each dissolved in DMSO to give a concentration of 5 mg/ml. […] The test was conducted twice for each test sample in a triplicate manner and the data were averaged.

[3] = 100 μl/well of 100 ng/ml test solution, 3 days, control = 100

Compound	Evaluation B: Neurite-outgrowth action (PC12-HS cells [1])	also measured
CCN1/C(=C/c2cc[n+](CC)c3ccccc23)C=Cc2ccccc21.[I-] [NK-276]	∘ (The test sample with a neurite outgrowth rate of 30% or higher was judged to be equivalent or more (∘) compared with NK-4)	–
CCN1C(C)=CS/C1=C\C=C\c1scc(C)[n+]1CC [NK-67]	∘ (The test sample with a neurite outgrowth rate of 30% or higher was judged to be equivalent or more (∘) compared with NK-4)	–
CC(C)CC[n+]1ccc(/C=C/c2ccc(N(C)C)cc2)c2ccccc21.[I-] [NK-282]	∘ (The test sample with a neurite outgrowth rate of 30% or higher was judged to be equivalent or more (∘) compared with NK-4)	–
CCCN1C(C)=CS\C1=C/C=C(\C=C\c1scc(C)[n+]1CCC)c1scc(C)[n+]1CCC.[I-].[I-] [NK-237]	–	Action of enhancing cell growth (%) (PC12-HS cells [2]; [3]): 212%; Percentage (%) of cells with neurite outgrowth (PC12-HS cells [1]): 16%
CCN1/C(=C/c2sc3ccccc3[n+]2CC)Sc2ccccc21.[Br-] [NK-1560]	∘ (The test sample with a neurite outgrowth rate of 30% or higher was judged to be equivalent or more (∘) compared with NK-4)	–
CCN1/C(=C/c2oc3ccccc3[n+]2CC)Sc2ccccc21.[I-] [NK-1049]	∘ (The test sample with a neurite outgrowth rate of 30% or higher was judged to be equivalent or more (∘) compared with NK-4)	–
CC[n+]1ccc(/C=C/c2ccc3c(c2)OCO3)c2ccccc21.[I-] [NK-629]	∘ (The test sample with a neurite outgrowth rate of 30% or higher was judged to be equivalent or more (∘) compared with NK-4)	–
CCN1/C(=C/C=C/c2oc3ccccc3[n+]2CC)Oc2ccccc21.[I-] [NK-85]	∘ (The test sample with a neurite outgrowth rate of 30% or higher was judged to be equivalent or more (∘) compared with NK-4)	–
CCN1/C(=C/C=C/c2sc3ccc4ccccc4c3[n+]2CC)Sc2ccc3ccccc3c21.[I-] [NK-382]	∘ (The test sample with a neurite outgrowth rate of 30% or higher was judged to be equivalent or more (∘) compared with NK-4)	–
CCN1/C(=C/C=C/C=C/c2sc3ccc4ccccc4c3[n+]2CC)Sc2ccc3ccccc3c21.[I-] [NK-2409]	∘ (The test sample with a neurite outgrowth rate of 30% or higher was judged to be equivalent or more (∘) compared with NK-4)	–
CCN1/C(=C/c2cc[n+](CC)c3ccccc23)Sc2ccccc21.[I-] [NK-750]	∘ (The test sample with a neurite outgrowth rate of 30% or higher was judged to be equivalent or more (∘) compared with NK-4)	–
CCCCCN1C(C)=CS\C1=C/C=C(\C=C\c1scc(C)[n+]1CCCCC)c1scc(C)[n+]1CCCCC.[I-].[I-] [NK-2850]	–	Action of enhancing cell growth (%) (PC12-HS cells [2]; [3]): 553%; Percentage (%) of cells with neurite outgrowth (PC12-HS cells [1]): 56%
CCCCN1C(C)=CS\C1=C/C=C(\C=C\c1scc(C)[n+]1CCCC)c1scc(C)[n+]1CCCC.[I-].[I-] [NK-24]	–	Action of enhancing cell growth (%) (PC12-HS cells [2]; [3]): 581%; Percentage (%) of cells with neurite outgrowth (PC12-HS cells [1]): 33%
CCCCN1C(C)=CS/C1=C\c1scc(C)[n+]1CCCC.[I-] [NK-399]	∘ (The test sample with a neurite outgrowth rate of 30% or higher was judged to be equivalent or more (∘) compared with NK-4)	–
CCCCCCCCCCN1C(C)=CS\C1=C/C=C(\C=C\c1scc(C)[n+]1CCCCCCCCCC)c1scc(C)[n+]1CCCCCCCCCC.[I-].[I-] [NK-2844]	–	Action of enhancing cell growth (%) (PC12-HS cells [2]; [3]): 399%; Percentage (%) of cells with neurite outgrowth (PC12-HS cells [1]): 54%
CN1/C(=C/C2=[N+](C)c3ccccc3C2(C)C)Oc2ccccc21.[I-] [NK-1684]	∘ (The test sample with a neurite outgrowth rate of 30% or higher was judged to be equivalent or more (∘) compared with NK-4)	–
CC[n+]1ccc(/C=C/C=C/c2ccc(N(C)C)cc2)c2ccccc21.[I-] [NK-526]	∘ (The test sample with a neurite outgrowth rate of 30% or higher was judged to be equivalent or more (∘) compared with NK-4)	–
CCCCCCCCCCCCN1C(C)=CS\C1=C/C=C(/C=C/c1scc(C)[n+]1CCCCCCCCCCCC)c1scc(C)[n+]1CCCCCCCCCCCC.[I-].[I-] [NK-32]	–	Action of enhancing cell growth (%) (PC12-HS cells [2]; [3]): 199%; Percentage (%) of cells with neurite outgrowth (PC12-HS cells [1]): 16%
CCN1/C(=C/c2ccc3ccccc3[n+]2CC)C=Cc2ccccc21.[Br-] [NK-1046]	∘ (The test sample with a neurite outgrowth rate of 30% or higher was judged to be equivalent or more (∘) compared with NK-4)	–

Compound	Evaluation B: Neurite-outgrowth action (PC12-HS cells [1])	also measured
CCCCCCC[n+]1c(C)csc1/C=C/c1ccc(N(C)C)cc1.[Cl-] [NK-279]	∘ (The test sample with a neurite outgrowth rate of 30% or higher was judged to be equivalent or more (∘) compared with NK-4)	–
CCN1/C(=C/c2oc3ccccc3[n+]2CC)Oc2ccccc21.[I-] [NK-863]	∘ (The test sample with a neurite outgrowth rate of 30% or higher was judged to be equivalent or more (∘) compared with NK-4)	–
CC1=CS\C(=C/C=C(\C=C\c2scc(C)[n+]2C)c2scc(C)[n+]2C)N1C.[I-].[I-] [NK-2]	–	Action of enhancing cell growth (%) (PC12-HS cells [2]; [3]): 126%; Percentage (%) of cells with neurite outgrowth (PC12-HS cells [1]): 4%
CN1/C(=C/C=C/c2oc3ccccc3[n+]2C)Oc2ccccc21.[I-] [NK-86]	∘ (The test sample with a neurite outgrowth rate of 30% or higher was judged to be equivalent or more (∘) compared with NK-4)	–
CCCC[n+]1c(C=Cc2ccc(N(C)C)cc2)sc2ccccc21.[I-] [NK-490]	∘ (The test sample with a neurite outgrowth rate of 30% or higher was judged to be equivalent or more (∘) compared with NK-4)	–
CN1/C(=C/c2oc3ccccc3[n+]2C)Oc2ccccc21.[I-] [NK-87]	∘ (The test sample with a neurite outgrowth rate of 30% or higher was judged to be equivalent or more (∘) compared with NK-4)	–
CCCCN1C(C)=CS\C1=C/C=C(\C=C\c1scc(C)[n+]1CCCC)c1scc(C)[n+]1CCCC.[Cl-].[Cl-] [NK-56]	–	Percentage (%) of cells with neurite outgrowth (PC12-HS cells [1]): 28%
CCN1C(C)=CS\C1=C/C=C(\C=C\c1scc(C)[n+]1CC)c1scc(C)[n+]1CC.[I-].[I-] [NK-13]	–	Action of enhancing cell growth (%) (PC12-HS cells [2]; [3]): 125%; Action of enhancing cell growth (%) (PC12-HS cells [2]; compound concentration 25 ng/ml): 126 ± 12%; Action of enhancing cell growth (%) (PC12-HS cells [2]; compound concentration 50 ng/ml): 140 ± 7%; Action of enhancing cell growth (%) (PC12-HS cells [2]; compound concentration 100 ng/ml): 231 ± 84%; Action of enhancing cell growth (%) (PC12-HS cells [2]; compound concentration 200 ng/ml): 209 ± 24%; Percentage (%) of cells with neurite outgrowth (PC12-HS cells [1]): 5%; Action on neurite outgrowth (%) (PC12-HS cells [1]; compound concentration 80 ng/ml): 10< %; Action on neurite outgrowth (%) (PC12-HS cells [1]; compound concentration 400 ng/ml): 10< %; Action on neurite outgrowth (%) (PC12-HS cells [1]; compound concentration 2000 ng/ml): 10< %; Action on neurite outgrowth (%) (PC12-HS cells [1]; compound concentration 10000 ng/ml): 10< %
CCN1/C(=C/C2=CC(=C/C=C/C3=CC(=C/c4sc5ccccc5[n+]4CC)/CC(C)(C)C3)/CC(C)(C)C2)Sc2ccccc21.[O-][Cl+3]([O-])([O-])[O-] [NK-2545]	∘ (The test sample with a neurite outgrowth rate of 30% or higher was judged to be equivalent or more (∘) compared with NK-4)	–
CCCCCN1/C(=C/C2=[N+](C)c3ccccc3C2(C)C)C(C)(C)c2ccccc21.[O-][Cl+3]([O-])([O-])[O-] [NK-3206]	∘ (The test sample with a neurite outgrowth rate of 30% or higher was judged to be equivalent or more (∘) compared with NK-4)	–
CCCCCCC[n+]1c(/C=C/c2ccc(N(C)C)cc2)ccc2ccccc21.[I-] [NK-231]	∘ (The test sample with a neurite outgrowth rate of 30% or higher was judged to be equivalent or more (∘) compared with NK-4)	–
CN1/C(=C/C=C/C=C/C=C/C2=[N+](C)c3ccccc3C2(C)C)C(C)(C)c2ccccc21.[I-] [NK-125]	∘ (The test sample with a neurite outgrowth rate of 30% or higher was judged to be equivalent or more (∘) compared with NK-4)	–
CCN1/C(=C/C=C/C=C/c2sc3ccccc3[n+]2CC)Sc2ccccc21.[I-] [NK-136]	∘ (The test sample with a neurite outgrowth rate of 30% or higher was judged to be equivalent or more (∘) compared with NK-4)	–
Cc1ccc2c(c1)S/C(=C\c1sc3cc(C)ccc3[n+]1C)N2C.[I-] [NK-594]	∘ (The test sample with a neurite outgrowth rate of 30% or higher was judged to be equivalent or more (∘) compared with NK-4)	–
CC[n+]1c(/C=C/C=C/c2ccc(N(C)C)cc2)sc2ccccc21.[I-] [NK-375]	∘ (The test sample with a neurite outgrowth rate of 30% or higher was judged to be equivalent or more (∘) compared with NK-4)	–
CC[n+]1c(/C=C/c2ccc(N(C)C)cc2)[se]c2ccccc21.[I-] [NK-1055]	∘ (The test sample with a neurite outgrowth rate of 30% or higher was judged to be equivalent or more (∘) compared with NK-4)	–
CCN1/C(=C/C=C/c2cc[n+](CC)c3ccccc23)Oc2ccccc21.[I-] [NK-741]	∘ (The test sample with a neurite outgrowth rate of 30% or higher was judged to be equivalent or more (∘) compared with NK-4)	–
CCCCCCCN1C(C)=CS/C1=C\c1scc(C)[n+]1CCCCCCC.[I-] [NK-266]	∘ (The test sample with a neurite outgrowth rate of 30% or higher was judged to be equivalent or more (∘) compared with NK-4)	–

Source: patent US20120035187A1 (priority 2009, published 2012)
